Consider 23 compounds from patent US20250092031A1, “RIPK3 INHIBITORS AND METHODS OF USE” (Momentum Therapeutics, Inc., priority 2023, published 2025).

For one experiment, the system named is Murine L929 cells. In words: Necroptosis inhibition assay in L929 cells (mTNFα + zVAD, Sytox Green). In kind it is cell-based. The settings on record: Mus musculus, 10 ng/ml mTNFα and 20 μM zVAD, 6 hours, Sytox Green fluorescence. The gist of the method:
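Murine L929 cells, treated 48 h after seeding with 10 ng/ml mTNFα plus 20 μM zVAD and compound ([…]), 6 h at 37° C. Necroptosis read by Sytox Green fluorescence (500ex/530em), scaled between 0.1% DMSO and TNFα+zVAD wells; IC50 from inhibition curves.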

For the next experiment, the target named is T1, RIPK3 (Homo sapiens, UniProt Q9Y572).
T1 construct: purchased Reaction Biology Corporation (RBC), Malvern, USA (contract assay service)
Description: RIPK3 kinase assay (radiometric HotSpot, Reaction Biology Corporation). Type of experiment: biochemical. How it is done:
The assays were performed in Reaction Biology Corporation (RBC), Malvern, USA. Compounds were diluted with DMSO to a final stock concentration of 10 mM and then were tested in a 10-dose IC50 mode with a 3-fold serial dilution starting at […]. All the reactions were carried out at 10 μM ATP and MBP 20 μM as substrates. RIPK3 activity was determined using radiometric HotSpot™ kinase assay protocol and IC50 values were calculated use GraphPad Prism software.

Another experiment concerns Human HT-29 cells. In words: Necroptosis inhibition assay in HT-29 cells (hTNFα + zVAD + SMAC mimetic, Sytox Green/Hoechst). Type of experiment: cell-based. The settings on record: 10 ng/ml hTNFα, 20 μM zVAD and 100 nM SMAC mimetic, 6 hours, Sytox/Hoechst positive cells, read-out: HT29 necroptosis inhibition IC50. The protocol: Human HT-29 cells (ATCC-HTB-38) were seeded at 10,000 cells/well in a 96-well plate. Cells were treated 48 hours after seeding with 10 ng/ml hTNFα (R&D Systems), 20 μM zVAD (ChemShuttle) and 100 nM SMAC mimetic (MedChem Express) in the presence of different concentrations of compounds ranging from […] to 0.01 μM. Cells treated with 0.1% DMSO or cells treated with TNFα+zVAD+SMAC mimetic were used as control and vehicle respectively.
Assay plates containing cells were incubated for 6 hours at 37° C. and 5% CO2. Necroptosis was assessed using Sytox Green Nucleic Acid Stain (Invitrogen) and Hoechst staining. After incubation, 100 μL of Sytox dye at 2 μM (2×) diluted in HBSS 1× was added to each well. At the same time, Hoechst stain is added to a final concentration of 10 μM and incubated for 15 min at room temperature. Images were taken for Sytox and Hoechst using the Cytation 5 microplate reader with DAPI and GFP filter cubes (Biotek). Sytox and Hoechst positive cells were counted with CellProfiler software.
Percentage of necroptosis inhibition was calculated as the percent compared to control and vehicle conditions which correspond to 100% and 0% respectively. The half-maximum necroptosis inhibition (IC50) levels were calculated using GraphPad Prism software and are shown in Table 3 (NT represents compound not tested).

T1 sequence (Q9Y572 whole entry): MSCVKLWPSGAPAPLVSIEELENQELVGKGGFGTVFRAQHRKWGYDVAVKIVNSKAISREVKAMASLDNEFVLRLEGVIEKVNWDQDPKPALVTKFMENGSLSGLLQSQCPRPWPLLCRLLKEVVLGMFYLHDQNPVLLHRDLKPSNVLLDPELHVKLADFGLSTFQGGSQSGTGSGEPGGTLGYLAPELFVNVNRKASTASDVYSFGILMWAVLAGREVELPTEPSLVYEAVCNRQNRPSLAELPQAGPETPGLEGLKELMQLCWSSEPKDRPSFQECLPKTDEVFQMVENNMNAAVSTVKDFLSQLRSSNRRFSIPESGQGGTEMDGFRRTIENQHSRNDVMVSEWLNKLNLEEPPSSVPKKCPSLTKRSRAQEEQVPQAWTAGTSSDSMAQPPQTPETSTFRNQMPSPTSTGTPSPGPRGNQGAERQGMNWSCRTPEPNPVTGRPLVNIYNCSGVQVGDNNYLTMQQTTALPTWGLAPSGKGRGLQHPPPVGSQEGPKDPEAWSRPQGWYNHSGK

One may read the IC50 as the concentration at which inhibition is half-maximal. As to `OCCN1CCN(Cc2ccc(-c3ccc4nccc(Nc5ccc6scnc6c5)c4c3)c(F)c2)CC1` [Compound 17, 2-(4-(4-(4-(benzo[d]thiazol-5-ylamino)quinolin-6-yl)-3-fluorobenzyl)piperazin-1-yl)ethanol], the half-maximal inhibitory concentration (IC50) with Murine L929 cells amounted to 341 nM; against RIPK3, 0.95 nM; with Human HT-29 cells, 97.1 nM.

With `Fc1cc(CN2CCOCC2)ccc1-c1ccc2nccc(Nc3ccc4scnc4c3)c2c1` [Compound 22, N-(6-(2-fluoro-4-(morpholinomethyl)phenyl)quinolin-4-yl)benzo[d]thiazol-5-amine], the values for the IC50 with Murine L929 cells, on RIPK3 and in the experiment with Human HT-29 cells were 316 nM, 2.13 nM and 327 nM, respectively.

As for `Fc1cc(CN2CCCC2)ccc1-c1ccc2nccc(Nc3ccc4scnc4c3)c2c1` [Compound 23, N-(6-(2-fluoro-4-(pyrrolidin-1-ylmethyl)phenyl)quinolin-4-yl)benzo[d]thiazol-5-amine], the IC50 amounted to 275 nM in the experiment on Murine L929 cells, 2.21 nM on RIPK3 and 302 nM in the experiment with Human HT-29 cells.

Regarding `CN1CCCN(Cc2ccc(-c3ccc4nccc(Nc5ccc6scnc6c5)c4c3)c(F)c2)CC1` [Compound 27, N-(6-(2-fluoro-4-((4-methyl-1,4-diazepan-1-yl)methyl)phenyl)quinolin-4-yl)benzo[d]thiazol-5-amine], the IC50 is 669 nM in the experiment with Murine L929 cells, 1.13 nM against RIPK3 and 168 nM in the experiment on Human HT-29 cells.

On to `CN1CCC(c2ccc(-c3ccc4nccc(Nc5ccc6scnc6c5)c4c3)cc2)CC1` [Compound 28, N-(6-(4-(1-methylpiperidin-4-yl)phenyl)quinolin-4-yl)benzo[d]thiazol-5-amine], for which the IC50 with Murine L929 cells is 2590 nM; on RIPK3, 3.47 nM; in the experiment with Human HT-29 cells it was more than 10000 nM.

As to `CN1CCN(Cc2ccc(-c3ccc4c(Nc5ccc6scnc6c5)ccnc4c3)c(F)c2)CC1` [Compound 29, N-(7-(2-fluoro-4-((4-methylpiperazin-1-yl)methyl)phenyl)quinolin-4-yl)benzo[d]thiazol-5-amine], the values for the half-maximal inhibitory concentration (IC50) with Murine L929 cells, at RIPK3 and with Human HT-29 cells were 494 nM, 2.31 nM and 341 nM, respectively.

For the compound `CN1CCN(Cc2ccc(-c3ccc4nccc(Nc5ccc(Cl)c(Cl)c5)c4c3)c(F)c2)CC1` [Compound 31, N-(3,4-dichlorophenyl)-6-(2-fluoro-4-((4-methylpiperazin-1-yl)methyl)phenyl)quinolin-4-amine], the IC50 in the experiment on Murine L929 cells turned out to be 1660 nM; against RIPK3, 2.75 nM; in the experiment on Human HT-29 cells, 523 nM.

Take `CN1CCN(C(=O)c2ccc(-c3ccc4c(Nc5ccc6scnc6c5)ccnc4c3)cc2)CC1` [Compound 34, (4-(4-(benzo[d]thiazol-5-ylamino)quinolin-7-yl)phenyl)(4-methylpiperazin-1-yl)methanone]: the half-inhibitory concentration (IC50) in the experiment with Murine L929 cells turned out to be 68.5 nM; at RIPK3, 0.65 nM; in the experiment on Human HT-29 cells, 119 nM.

With `CN1CCN(C(=O)c2ccc(-c3ccc4nccc(Nc5ccc6scnc6c5)c4c3)cc2)CC1` [Compound 35, (4-(4-(benzo[d]thiazol-5-ylamino)quinolin-6-yl)phenyl)(4-methylpiperazin-1-yl)methanone], the 50% inhibitory concentration (IC50) in the experiment on Murine L929 cells was 818 nM; against RIPK3 it was 3.97 nM; in the experiment on Human HT-29 cells, 116 nM.

On to `CC(C)(C)N1CCN(Cc2ccc(-c3ccc4nccc(Nc5ccc6scnc6c5)c4c3)c(F)c2)CC1` [Compound 36, N-(6-(4-((4-(tert-butyl)piperazin-1-yl)methyl)-2-fluorophenyl)quinolin-4-yl)benzo[d]thiazol-5-amine], for which the concentration for half-maximal inhibition (IC50) in the experiment with Murine L929 cells amounted to 318 nM; at RIPK3, 1.28 nM; in the experiment on Human HT-29 cells, 353 nM.

Turning to `CC(C)(C)N1CCN(Cc2ccc(-c3ccc4c(Nc5ccc6scnc6c5)ccnc4c3)c(F)c2)CC1` [Compound 37, N-(7-(4-((4-(tert-butyl)piperazin-1-yl)methyl)-2-fluorophenyl)quinolin-4-yl)benzo[d]thiazol-5-amine], the half-maximal inhibitory concentration (IC50) came to 445 nM with Murine L929 cells, 1.79 nM at RIPK3 and 670 nM in the experiment on Human HT-29 cells.

For `Fc1cc(CN2CCC(F)(F)CC2)ccc1-c1ccc2nccc(Nc3ccc4scnc4c3)c2c1` [Compound 40, N-(6-(4-((4,4-difluoropiperidin-1-yl)methyl)-2-fluorophenyl)quinolin-4-yl)benzo[d]thiazol-5-amine], the concentration for half-maximal inhibition (IC50) is 1060 nM in the experiment with Murine L929 cells, 18.3 nM on RIPK3 and 7870 nM with Human HT-29 cells.

Regarding `Fc1cc(CN2CCNCC2)ccc1-c1ccc2nccc(Nc3ccc4scnc4c3)c2c1` [Compound 41, N-(6-(2-fluoro-4-(piperazin-1-ylmethyl)phenyl)quinolin-4-yl)benzo[d]thiazol-5-amine], the values for the 50% inhibitory concentration (IC50) with Murine L929 cells, against RIPK3 and in the experiment on Human HT-29 cells were 365 nM, 0.133 nM and 86.8 nM, respectively.

`Fc1cc(CN2CCCCC2)ccc1-c1ccc2c(Nc3ccc4scnc4c3)ccnc2c1` [Compound 43, N-(7-(2-fluoro-4-(piperidin-1-ylmethyl)phenyl)quinolin-4-yl)benzo[d]thiazol-5-amine]: the IC50 was found to be 188 nM with Murine L929 cells, 0.162 nM against RIPK3 and 93.9 nM in the experiment on Human HT-29 cells.

As for `O=c1ccccn1Cc1ccc(-c2ccc3nccc(Nc4ccc5scnc5c4)c3c2)c(F)c1` [Compound 47, 1-(4-(4-(benzo[d]thiazol-5-ylamino)quinolin-6-yl)-3-fluorobenzyl)pyridin-2(1H)-one], the IC50 in the experiment with Murine L929 cells was found to be 421 nM; at RIPK3 it was 0.86 nM; in the experiment with Human HT-29 cells, 1020 nM.

For `c1cc(Nc2ccc3scnc3c2)c2ccc(-c3ccc(OCCN4CCCCC4)cc3)cc2n1` [Compound 50, N-(7-(4-(2-(piperidin-1-yl)ethoxy)phenyl)quinolin-4-yl)benzo[d]thiazol-5-amine], the 50% inhibitory concentration (IC50) in the experiment with Murine L929 cells amounted to 320 nM; at RIPK3 it was 0.102 nM; in the experiment on Human HT-29 cells, 708 nM.

`Fc1cc(CN2CC3(CCOCC3)C2)ccc1-c1ccc2nccc(Nc3ccc4scnc4c3)c2c1` [Compound 51, N-(6-(4-(7-oxa-2-azaspiro[3.5]nonan-2-ylmethyl)-2-fluorophenyl)quinolin-4-yl)benzo[d]thiazol-5-amine]: the IC50 is 832 nM in the experiment with Murine L929 cells, 1.88 nM on RIPK3 and 1200 nM in the experiment on Human HT-29 cells.

Consider `Fc1cc(CN2CC3(CCOCC3)C2)ccc1-c1ccc2c(Nc3ccc4scnc4c3)ccnc2c1` [Compound 52, N-(7-(4-(7-oxa-2-azaspiro[3.5]nonan-2-ylmethyl)-2-fluorophenyl)quinolin-4-yl)benzo[d]thiazol-5-amine], for which the concentration for half-maximal inhibition (IC50) was determined as 323 nM with Murine L929 cells, 0.57 nM on RIPK3 and 505 nM in the experiment on Human HT-29 cells.

For the compound `O=C(c1ccc(-c2ccc3nccc(Nc4ccc5scnc5c4)c3c2)c(F)c1)N1CCCCC1` [Compound 53, (4-(4-(benzo[d]thiazol-5-ylamino)quinolin-6-yl)-3-fluorophenyl)(piperidin-1-yl)methanone], the IC50 in the experiment with Murine L929 cells was 513 nM; on RIPK3, 0.72 nM; in the experiment on Human HT-29 cells, 705 nM.

Regarding `Fc1cc(CN2CCCC2)ccc1-c1ccc2c(Nc3ccc4scnc4c3)ccnc2c1` [Compound 54, N-(7-(2-fluoro-4-(pyrrolidin-1-ylmethyl)phenyl)quinolin-4-yl)benzo[d]thiazol-5-amine], the figures for the IC50 in the experiment with Murine L929 cells, at RIPK3 and with Human HT-29 cells were 201 nM, 0.308 nM and 630 nM, respectively.

For the compound `O=C(c1ccc(-c2ccc3c(Nc4ccc5scnc5c4)ccnc3c2)c(F)c1)N1CCCCC1` [Compound 61, (4-(4-(benzo[d]thiazol-5-ylamino)quinolin-7-yl)-3-fluorophenyl)(piperidin-1-yl)methanone], the results for the IC50 with Murine L929 cells, at RIPK3 and in the experiment with Human HT-29 cells were 93.3 nM, 0.029 nM and 94.2 nM, respectively.

`O=C(c1ccc(-c2ccc3nccc(Nc4ccc5scnc5c4)c3c2)c(F)c1)N1CCNCC1` [Compound 249, (4-(4-(benzo[d]thiazol-5-ylamino)quinolin-6-yl)-3-fluorophenyl)(piperazin-1-yl)methanone]: the concentration for half-maximal inhibition (IC50) in the experiment on Murine L929 cells came out at 1260 nM; on RIPK3 it was 1.75 nM; with Human HT-29 cells, 67.9 nM.

With `O=C1CN(C(=O)c2ccc(-c3ccc4c(Nc5ccc6scnc6c5)ccnc4c3)c(F)c2)CCN1` [Compound 276, 4-(4-(4-(benzo[d]thiazol-5-ylamino)quinolin-7-yl)-3-fluorobenzoyl)piperazin-2-one], the values for the IC50 with Murine L929 cells, against RIPK3 and with Human HT-29 cells were 553 nM, 6.89 nM and 538 nM, respectively.
